≈ marks a conversion by molar mass, not a printed value. Numbered stars: 1 amine (or outer) side, 2 acyl side, 3 side chain; on linkers, the order of the positions; unused ones are H or OH. Square brackets hold non-standard residues; d marks the D form. Peptide text beside a SMILES is read from it. Pro(cis-4-guanidino) = NC(N)=N[C@@H]1CN[C@H](C(=O)O)C1; X1 = NCCCN1C[C@@H](N[*:1])C[C@H]1C(=O)[*:2]; Ethylenediamine = C(CN[*:2])N[*:1]; βAla = NCCC(=O)O
What was measured:
[1] = system: Escherichia coli; assay: Antibacterial activity against Escherichia coli NCIM 2688 after 8 hrs by serial dilution method; assay type: functional, organism-based; settings: NCIM 2688, 8 h
[2] = system: Pseudomonas aeruginosa; assay: Antibacterial activity against Pseudomonas aeruginosa NCIM 2036 after 8 hrs by serial dilution method; assay type: functional, organism-based; settings: NCIM 2036, 8 h
[3] = system: Bacillus subtilis; assay: Antibacterial activity against Bacillus subtilis NCIM 2079 after 12 hrs by serial dilution method; assay type: functional, organism-based; settings: NCIM 2079, 12 h
[4] = system: Staphylococcus aureus; assay: Antibacterial activity against Staphylococcus aureus NCIM 2010 after 12 hrs by serial dilution method; assay type: functional, organism-based; settings: NCIM 2010, 12 h
[5] = system: Mycobacterium tuberculosis; assay: Antitubercular activity against dormant stage of Mycobacterium tuberculosis H37Ra ATCC 25177 after 12 days by XRMA; assay type: functional, organism-based; settings: H37Ra ATCC 25177, 288 h
[6] = system: Mycobacterium tuberculosis; assay: Antitubercular activity against active stage of Mycobacterium tuberculosis H37Ra ATCC 25177 after 8 days by XRMA; assay type: functional, organism-based; settings: H37Ra ATCC 25177, 192 h
[7] = Cytotoxicity against human HeLa cells assessed as cell viability at 1 to 10 uM after 24 hrs by MTT assay relative to control; assay type: cell-based; settings: read-out: Activity
[8] = system: Enterobacter sp.; assay: Antibacterial activity against Enterobacter sp. NCIM 5392 after 8 hrs by serial dilution method; assay type: functional, organism-based; settings: NCIM 5392, 8 h
[9] = system: Staphylococcus epidermidis; assay: Antibacterial activity against Staphylococcus epidermidis NCIM 5270 after 12 hrs by serial dilution method; assay type: functional, organism-based; settings: NCIM 5270, 12 h

| Compound | IC50 [1] | MIC [1] | IC50 [2] | MIC [2] | IC50 [3] | MIC [3] | IC50 [4] | MIC [4] | IC50 [5] | MIC [5] | IC50 [6] | MIC [6] | viability at 24 h, up to 10 µM [7] | IC50 [8] | MIC [8] | IC50 [9] | MIC [9] |
| --- | --- | --- | --- | --- | --- | --- | --- | --- | --- | --- | --- | --- | --- | --- | --- | --- | --- |
| CC(=O)N[C@@H](Cc1ccccc1)C(=O)NCC(=O)N1C[C@@H](NC(=N)N)C[C@H]1C(=O)N[C@@H](CCCCN)C(=O)N[C@@H](CCCCN)C(=O)N[C@@H](CCCNC(=N)N)C(=O)N1C[C@@H](NC(=N)N)C[C@H]1C(=O)N[C@@H](CCC(N)=O)C(=O)N1C[C@@H](NC(=N)N)C[C@H]1C(=O)N[C@@H](CCCNC(=N)N)C(=O)N1C[C@@H](NC(=N)N)C[C@H]1C(=O)NCCC(N)=O (Ac-FG[Pro(cis-4-guanidino)]KKR[Pro(cis-4-guanidino)]Q[Pro(cis-4-guanidino)]R[Pro(cis-4-guanidino)][βAla]-NH2) | 0.223 µM | 27.7 µM (≈ 45.7 µg/mL) | 0.063 µM | 26 µM (≈ 42.8 µg/mL) | 0.143 µM | 15.1 µM (≈ 24.9 µg/mL) | 0.092 µM | 5.59 µM (≈ 9.21 µg/mL) | 1.91 µM | 29.4 µM (≈ 48.4 µg/mL) | 7.44 µM | 53.9 µM (≈ 88.8 µg/mL) | ≥ 80% | – | – | – | – |
| CC(=O)N[C@@H](Cc1ccccc1)C(=O)NCC(=O)N[C@H]1C[C@@H](C(=O)N[C@@H](CCCCN)C(=O)N[C@@H](CCCCN)C(=O)N[C@@H](CCCNC(=N)N)C(=O)N[C@H]2C[C@@H](C(=O)N[C@@H](CCC(N)=O)C(=O)N[C@@H](CCCNC(=N)N)C(=O)N[C@@H](CCCNC(=N)N)C(=O)N[C@H]3C[C@@H](C(=O)NCCC(N)=O)N(CCCN)C3)N(CCCN)C2)N(CCCN)C1 (Ac-FG[X1]KKR[X1]QRR[X1][βAla]-NH2) | 0.0165 µM | 3.52 µM (≈ 5.97 µg/mL) | 0.0082 µM | 2.32 µM (≈ 3.93 µg/mL) | 0.0124 µM | 4.16 µM (≈ 7.05 µg/mL) | 0.0106 µM | 3.02 µM (≈ 5.12 µg/mL) | 2.24 µM | 26.3 µM (≈ 44.6 µg/mL) | 4.5 µM | 43 µM (≈ 72.9 µg/mL) | ≥ 80% | 0.0124 µM | 4.65 µM (≈ 7.88 µg/mL) | 0.033 µM | 7.25 µM (≈ 12.3 µg/mL) |
| CC(=O)N[C@@H](Cc1ccccc1)C(=O)NCC(=O)N[C@H]1C[C@@H](C(=O)N[C@@H](CCCCN)C(=O)N[C@@H](CCCCN)C(=O)N[C@@H](CCCNC(=N)N)C(=O)N[C@H]2C[C@@H](C(=O)N[C@@H](CCC(N)=O)C(=O)N[C@H]3C[C@@H](C(=O)N[C@@H](CCCNC(=N)N)C(=O)N[C@H]4C[C@@H](C(=O)NCCN)N(CCCN)C4)N(CCCN)C3)N(CCCN)C2)N(CCCN)C1 (Ac-FG[X1]KKR[X1]Q[X1]R[X1]-Ethylenediamine) | 0.007 µM | 2.34 µM (≈ 3.93 µg/mL) | 0.007 µM | 2.2 µM (≈ 3.7 µg/mL) | 0.0058 µM | 3.79 µM (≈ 6.37 µg/mL) | 0.0134 µM | 3.02 µM (≈ 5.07 µg/mL) | 1.42 µM | 18.3 µM (≈ 30.7 µg/mL) | 4.92 µM | 34.4 µM (≈ 57.8 µg/mL) | ≥ 80% | 0.011 µM | 4.51 µM (≈ 7.58 µg/mL) | 0.007 µM | 3.94 µM (≈ 6.62 µg/mL) |
| CC1(C)S[C@@H]2[C@H](NC(=O)[C@H](N)c3ccccc3)C(=O)N2[C@H]1C(=O)O [AMPICILLIN] | 0.146 µM | 4.17 µM (≈ 1.46 µg/mL) | 0.436 µM | 12.5 µM (≈ 4.37 µg/mL) | 1 µM | 29.5 µM (≈ 10.3 µg/mL) | 0.1 µM | 2.8 µM (≈ 0.978 µg/mL) | – | – | – | – | – | – | – | – | – |
| NC[C@H]1O[C@H](O[C@H]2[C@H](O)[C@@H](O[C@H]3O[C@H](CO)[C@@H](O)[C@H](N)[C@H]3O)[C@H](N)C[C@@H]2N)[C@H](O)[C@@H](O)[C@@H]1O [KANAMYCIN] | 0.162 µM | 3.3 µM (≈ 1.6 µg/mL) | 0.049 µM | 1.01 µM (≈ 0.489 µg/mL) | 0.135 µM | 2.8 µM (≈ 1.36 µg/mL) | 0.3 µM | > 61.9 µM | – | – | – | – | – | – | – | – | – |
| NC(=O)c1cnccn1 [PYRAZINAMIDE] | – | – | – | – | – | – | – | – | – | > 100 µM | – | > 100 µM | – | – | – | – | – |
| CO[C@H]1/C=C/O[C@@]2(C)Oc3c(C)c(O)c4c(O)c(c(/C=N/N5CCN(C)CC5)c(O)c4c3C2=O)NC(=O)/C(C)=C\C=C\[C@H](C)[C@H](O)[C@@H](C)[C@@H](O)[C@@H](C)[C@H](OC(C)=O)[C@@H]1C [RIFAMPIN] | – | – | – | – | – | – | – | – | – | 0.91 µM (≈ 0.749 µg/mL) | – | 0.97 µM (≈ 0.798 µg/mL) | – | – | – | – | – |
